Patent publication US11453681B2, “Substituted eneoxindoles and uses thereof” (Gilead Sciences, Inc., priority 2019, dated 2022)

These molecules were tested against human HPK1 (MAP4K1) (Homo sapiens (Human), UniProt Q92918) (assay: HPK1 IC50 Assay). Details: recombinant HPK1 kinase domain 0.15 nM, synthetic peptide substrate STK S1, 3 hours at 25° C., time-resolved fluorescence energy transfer; geometric mean of multiple experiments.
Format: biochemical
Method: The enzymatic activity of human HPK1 (MAP4K1) was monitored in a biochemical assay in the presence or absence of compounds and using a synthetic peptide substrate. An increase in phosphorylation of the peptide by HPK1 was indicative of its kinase activity.
Recombinant HPK1 kinase domain produced via baculovirus infection of insect cells was obtained from Proteros (Proteros Biostructures #PR-0322) and was pre-activated in the presence of 2 mM ATP (Sigma-Aldrich, cat #GE27-2056-01) and 2 mM magnesium chloride for 16 hours at 4° C. The protein reaction mixture was then loaded to a desalting column (Thermo Fisher Scientific, Cat #89889) to remove excess ATP. HPK1 was eluted with buffer containing 20 mM Tris (2-Amino-2-(hydroxymethyl)propane-1,3-diol) pH 8.0, 150 mM NaCl, 2 mM dithiothreitol and 5% glycerol, and was frozen at −80° C. for later use. HPK1 dual phosphorylation was confirmed by mass spectrometry.
Ten nanoliters of test compounds dissolved in DMSO at various concentrations were dispensed into a 384-well ProxiPlate (PerkinElmer #6008289). Five microliters of a solution of recombinant HPK1 diluted in HPK1 kinase assay buffer (50 mM BES [N,N-Bis(2-hydroxyethyl)-2-aminoethanesulfonic acid], pH 7.0; 10 mM magnesium chloride; 0.01% Triton X-100; 1 mM dithiothreitol; 0.01% bovine serum albumin; 0.1 mM sodium orthovanadate) was added to the compound-containing plate and was incubated for 15 minutes at 25° C. Five microliters of a mixture of ATP (Sigma-Aldrich #A6559) and peptide substrate STK Si (Cisbio #61ST1BLC) diluted in HPK1 kinase assay buffer was then added to start the reaction. Final concentrations were 0.15 nM for HPK1, […], and 1 […]. The reaction mixture was incubated at 25° C. for 3 hours and was stopped with the addition of 10 μl of an EDTA (Ethylenediaminetetraacetic acid)-containing detection buffer (Cisbio #62SDBRDF) supplemented with Europium cryptate-labeled anti-phospho-serine/threonine antibodies (Cisbio #62ST1PEJ) and XL665-labeled streptavidin (Cisbio #610SAXLG). The mixture was incubated for 16 hours at room temperature and peptide phosphorylation was measured by time-resolved fluorescence energy transfer (665 nm/620 nm) on an Envision plate reader (PerkinElmer).
Data in Table 1 were normalized based on positive (staurosporine) and negative (DMSO) controls. Least squares curve fittings were performed using a four-parameter variable slope nonlinear regression model. IC50 is defined as the concentration of compound required to inhibit 50% of maximum phosphorylation. IC50 values from multiple experiments were averaged by geometric mean and the standard deviation was calculated.

human HPK1 (MAP4K1), sequence (Q92918 17-274): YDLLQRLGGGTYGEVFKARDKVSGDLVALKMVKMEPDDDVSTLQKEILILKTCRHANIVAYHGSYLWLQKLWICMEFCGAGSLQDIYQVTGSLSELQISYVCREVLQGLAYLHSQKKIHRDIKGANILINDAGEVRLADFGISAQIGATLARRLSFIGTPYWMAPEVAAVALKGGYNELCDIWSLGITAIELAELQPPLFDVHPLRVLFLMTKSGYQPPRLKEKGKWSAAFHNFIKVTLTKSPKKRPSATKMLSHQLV

IC50 [nM] | SMILES
0.31 | Cc1c(-c2cc(F)c3c(c2C)/C(=C/c2cc4ncccc4[nH]2)C(=O)N3)cnc2c1NCCO2 [Compound C64, (Z)-3-((1H-pyrrolo[3,2-b]pyridin-2-yl)methylene)-7-fluoro-4-methyl-5-(8-methyl-2,3-dihydro-1H-pyrido[2,3-b][1,4]oxazin-7-yl)indolin-2-one]
1.03 | Cc1c(-c2cc(F)c3c(c2C)/C(=C/c2cn[nH]c2)C(=O)N3)cnc2c1NCCO2 [Compound C65, (Z)-3-((1H-pyrazol-4-yl)methylene)-7-fluoro-4-methyl-5-(8-methyl-2,3-dihydro-1H-pyrido[2,3-b][1,4]oxazin-7-yl)indolin-2-one]
6.9 | Cc1c(-c2cc(Cl)c3c(c2)/C(=C/c2cn[nH]c2)C(=O)N3)cnc2c1NCCO2 [Compound C66, (Z)-3-((1H-pyrazol-4-yl)methylene)-7-chloro-5-(8-methyl-2,3-dihydro-1H-pyrido[2,3-b][1,4]oxazin-7-yl)indolin-2-one]
4.33 | Cc1cc(-c2cnc3c(c2C)NCCO3)cc2c1NC(=O)/C2=C\c1cn[nH]c1 [Compound C67, (Z)-3-((1H-pyrazol-4-yl)methylene)-7-methyl-5-(8-methyl-2,3-dihydro-1H-pyrido[2,3-b][1,4]oxazin-7-yl)indolin-2-one]
0.32 | Cc1n[nH]cc1/C=C1\C(=O)Nc2ccc(-c3cnc4c(c3C)NCCO4)cc21 [Compound C68, (Z)-3-((3-methyl-H-pyrazol-4-yl)methylene)-5-(8-methyl-2,3-dihydro-1H-pyrido[2,3-b][1,4]oxazin-7-yl)indolin-2-one]
0.26 | Cc1c(-c2ccc3c(c2)/C(=C/c2cn[nH]c2)C(=O)N3)cnc2c1NCCO2 [Compound C69, (Z)-3-((1H-pyrazol-4-yl)methylene)-5-(8-methyl-2,3-dihydro-1H-pyrido[2,3-b][1,4]oxazin-7-yl)indolin-2-one]
0.42 | Cc1c(-c2ccc3c(c2)/C(=C/c2c[nH]c4ccccc24)C(=O)N3)cnc2c1NCCO2 [Compound C70, (Z)-3-((1H-indol-3-yl)methylene)-5-(8-methyl-2,3-dihydro-1H-pyrido[2,3-b][1,4]oxazin-7-yl)indolin-2-one]
66.7 | O=C1Nc2ccc(-c3cnc4c(c3)NCCO4)cc2/C1=C/c1ncc[nH]1 [Compound C71, (Z)-3-((1H-imidazol-2-yl)methylene)-5-(2,3-dihydro-1H-pyrido[2,3-b][1,4]oxazin-7-yl)indolin-2-one]
2.13 | Cc1c(-c2ccc3c(c2)/C(=C/c2ncc[nH]2)C(=O)N3)cnc2c1NCC1(CC1)O2 [Compound C72, (Z)-3-((1H-imidazol-2-yl)methylene)-5-(8′-methyl-1′,2′-dihydrospiro[cyclopropane-1,3′-pyrido[2,3-b][1,4]oxazin]-7′-yl)indolin-2-one]

More lines, now with the values behind:

SMILES | IC50 [nM]
Cc1c(-c2cc3c(cc2F)NC(=O)/C3=C\c2cc3cnccc3[nH]2)cnc2c1NCCO2 [Compound C49, (Z)-3-((1H-pyrrolo[3,2-c]pyridin-2-yl)methylene)-6-fluoro-5-(8-methyl-2,3-dihydro-1H-pyrido[2,3-b][1,4]oxazin-7-yl)indolin-2-one] | 0.16
Cc1c(-c2cc3c(cc2Cl)NC(=O)/C3=C\c2cc3ccccc3[nH]2)cnc2c1NCCO2 [Compound C50, (Z)-3-((1H-indol-2-yl)methylene)-6-chloro-5-(8-methyl-2,3-dihydro-1H-pyrido[2,3-b][1,4]oxazin-7-yl)indolin-2-one] | 0.19
Cc1c(-c2cc3c(cc2F)NC(=O)/C3=C\c2cc3ccccc3[nH]2)cnc2c1NCCO2 [Compound C51, (Z)-3-((1H-indol-2-yl)methylene)-6-fluoro-5-(8-methyl-2,3-dihydro-1H-pyrido[2,3-b][1,4]oxazin-7-yl)indolin-2-one] | 0.16
Cc1c(-c2cc(F)c3c(c2)/C(=C/c2cc4ccccc4[nH]2)C(=O)N3)cnc2c1NCCO2 [Compound C53, (Z)-3-((1H-indol-2-yl)methylene)-7-fluoro-5-(8-methyl-2,3-dihydro-1H-pyrido[2,3-b][1,4]oxazin-7-yl)indolin-2-one] | 0.16
Cc1c(-c2cc(F)c3c(c2C)/C(=C/c2cc4cnccc4[nH]2)C(=O)N3)cnc2c1NCCO2 [Compound C54, (Z)-3-((1H-pyrrolo[3,2-c]pyridin-2-yl)methylene)-7-fluoro-4-methyl-5-(8-methyl-2,3-dihydro-1H-pyrido[2,3-b][1,4]oxazin-7-yl)indolin-2-one] | 0.27
Cc1c(-c2cnc3c(c2)/C(=C/c2cc4ccccc4[nH]2)C(=O)N3)cnc2c1NCCO2 [Compound C55, (Z)-3-((1H-indol-2-yl)methylene)-5-(8-methyl-2,3-dihydro-1H-pyrido[2,3-b][1,4]oxazin-7-yl)-1,3-dihydro-2H-pyrrolo[2,3-b]pyridin-2-one] | 1.24
Cc1c(-c2cc(F)c3c(c2C)/C(=C/c2cc4ccccc4[nH]2)C(=O)N3)cnc2c1NCCO2 [Compound C56, (Z)-3-((1H-indol-2-yl)methylene)-7-fluoro-4-methyl-5-(8-methyl-2,3-dihydro-1H-pyrido[2,3-b][1,4]oxazin-7-yl)indolin-2-one] | 0.51
Cc1c(-c2ccc3c(c2)/C(=C/c2cc4ncccc4[nH]2)C(=O)N3)cnc2c1NCCO2 [Compound C57, (Z)-3-((1H-pyrrolo[3,2-b]pyridin-2-yl)methylene)-5-(8-methyl-2,3-dihydro-1H-pyrido[2,3-b][1,4]oxazin-7-yl)indolin-2-one] | 0.05
Cc1c(-c2ccc3c(c2)/C(=C/c2cc4ccncc4[nH]2)C(=O)N3)cnc2c1NCCO2 [Compound C58, (Z)-3-((1H-pyrrolo[2,3-c]pyridin-2-yl)methylene)-5-(8-methyl-2,3-dihydro-1H-pyrido[2,3-b][1,4]oxazin-7-yl)indolin-2-one] | 0.11
Cc1c(-c2ccc3c(c2)/C(=C/c2nc4ccccc4[nH]2)C(=O)N3)cnc2c1NCCO2 [Compound C59, (Z)-3-((1H-benzo[d]imidazol-2-yl)methylene)-5-(8-methyl-2,3-dihydro-1H-pyrido[2,3-b][1,4]oxazin-7-yl)indolin-2-one] | 0.28
Cc1c(-c2ccc3c(c2)/C(=C/c2cc4cnccc4[nH]2)C(=O)N3)cnc2c1NCCO2 [Compound C60, (Z)-3-((1H-pyrrolo[3,2-c]pyridin-2-yl)methylene)-5-(8-methyl-2,3-dihydro-1H-pyrido[2,3-b][1,4]oxazin-7-yl)indolin-2-one] | 0.06
Cc1c(-c2ccc3c(c2)/C(=C/c2cc4cccnc4[nH]2)C(=O)N3)cnc2c1NCCO2 [Compound C61, (Z)-3-((1H-pyrrolo[2,3-b]pyridin-2-yl)methylene)-5-(8-methyl-2,3-dihydro-1H-pyrido[2,3-b][1,4]oxazin-7-yl)indolin-2-one] | 1.1
Cc1c(-c2ccc3c(c2)/C(=C/c2cc4ccccc4[nH]2)C(=O)N3)cnc2c1NCCO2 [Compound C62, (Z)-3-((1H-indol-2-yl)methylene)-5-(8-methyl-2,3-dihydro-1H-pyrido[2,3-b][1,4]oxazin-7-yl)indolin-2-one] | 0.05
Cc1c(-c2cc(F)c3c(c2C)/C(=C/c2cc4ccncc4[nH]2)C(=O)N3)cnc2c1NCCO2 [Compound C63, (Z)-3-((1H-pyrrolo[2,3-c]pyridin-2-yl)methylene)-7-fluoro-4-methyl-5-(8-methyl-2,3-dihydro-1H-pyrido[2,3-b][1,4]oxazin-7-yl)indolin-2-one] | 0.41
